# Test results from patent US20080207705A1, “Heteroaryl-Imidazole Derivatives as Cannabinoid CB1 Receptor Antagonists” (Green Cross Corporation, priority 2007, published 2008).
# pIC50: −log10 of the molar value.
# Target: T1, rat CB-1 receptor (Rattus norvegicus, UniProt P20272)
# T1 construct: The tissue obtained from the brain of SD rats was homogenized; from tissue; host or cells: brain of SD rats (membrane pellet of homogenate)
# Test: rat CB-1 receptor binding protocol with [3H]CP-55940
# Settings: not given
# T1 sequence (P20272 whole entry): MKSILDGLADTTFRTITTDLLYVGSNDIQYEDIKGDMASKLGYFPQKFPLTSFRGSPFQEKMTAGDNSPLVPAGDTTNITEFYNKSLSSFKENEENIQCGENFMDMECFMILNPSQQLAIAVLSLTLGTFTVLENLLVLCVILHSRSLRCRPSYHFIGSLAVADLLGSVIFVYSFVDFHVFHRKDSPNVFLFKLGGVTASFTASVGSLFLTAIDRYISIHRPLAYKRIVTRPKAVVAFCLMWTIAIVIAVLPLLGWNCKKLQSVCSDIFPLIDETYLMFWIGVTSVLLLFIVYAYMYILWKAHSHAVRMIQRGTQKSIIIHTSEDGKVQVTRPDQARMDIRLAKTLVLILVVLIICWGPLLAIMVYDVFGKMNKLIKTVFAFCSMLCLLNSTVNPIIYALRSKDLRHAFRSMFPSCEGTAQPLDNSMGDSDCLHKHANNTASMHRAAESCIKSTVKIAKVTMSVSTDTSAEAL
row,SMILES,pIC50
1,"Cc1c(-c2nnc(C3CCCC3)o2)nc(-c2ccc(Cl)cc2Cl)n1-c1ccc(Cl)cc1 [Example 3, 2-(1-(4-Chlorophenyl)-2-(2,4-dichlorophenyl)-5-methyl-1H-imidazol-4-yl)-5-cyclopentyl-1,3,4-oxadiazole]",7.45
2,"CCc1c(-c2nnc(C3(c4ccc(Cl)cc4)CC3)o2)nc(-c2ccc(Cl)cc2Cl)n1-c1ccc(Br)cc1 [Example 40, 2-(1-(4-Bromophenyl)-2-(2,4-dichlorophenyl)-5-ethyl-1H-imidazol-4-yl)-5-(1-(4-chlorophenyl)cyclopropyl)-1,3,4-oxadiazole]",8.04
3,"CC(C)c1c(-c2nnc(C(C)(C)C)o2)nc(-c2ccc(Cl)cc2Cl)n1-c1ccc(Br)cc1 [Example 25, 2-(1-(4-Bromophenyl)-2-(2,4-dichlorophenyl)-5-isopropyl-1H-imidazol-4-yl)-5-tert-butyl-1,3,4-oxadiazole]",7.67

# Same assay, conditions: [3H]CP-55940, brain tissue of SD rats, 30 °C for 60 min; read-out: IC50
row,SMILES,pIC50
1,"CCc1c(-c2nnc(C3(C(F)(F)F)CC3)o2)nc(-c2ccccc2Cl)n1-c1ccc(Br)cc1 [Example 56, 2-(1-(4-Bromophenyl)-2-(2-chlorophenyl)-5-ethyl-1H-imidazol-4-yl)-5-(1-(trifluoromethyl)cyclopropyl)-1,3,4-oxadiazole]",7.70
2,"CCCc1c(-c2nnc(C3(c4ccc(Cl)cc4)CC3)o2)nc(-c2ccc(Cl)cc2Cl)n1-c1ccc(Br)cc1 [Example 33, 2-(1-(4-Bromophenyl)-2-(2,4-dichlorophenyl)-5-propyl-1H-imidazol-4-yl)-5-(1-(4-chlorophenyl)cyclopropyl)-1,3,4-oxadiazole]",7.72
3,"CCCc1c(-c2nnc(C(C)(C)C)o2)nc(-c2ccc(Cl)cc2Cl)n1-c1ccc(Cl)cc1 [Example 35, 2-tert-Butyl-5-(1-(4-chlorophenyl)-2-(2,4-dichlorophenyl)-5-propyl-1H-imidazol-4-yl)-1,3,4-oxadiazole]",7.72
4,"CC(C)c1c(-c2nnc(C3(c4ccccc4)CC3)s2)nc(-c2ccc(Cl)cc2Cl)n1-c1ccc(Cl)cc1 [Example 118, 2-(1-(4-Chlorophenyl)-2-(2,4-dichlorophenyl)-5-isopropyl-1H-imidazol-4-yl)-5-(1-phenylcyclopropyl)-1,3,4-thiadiazole]",8.12
5,"CCCc1c(-c2nnc(C3CCC3)s2)nc(-c2ccc(Cl)cc2Cl)n1-c1ccc(Cl)cc1 [Example 126, 2-(1-(4-Chlorophenyl)-2-(2,4-dichlorophenyl)-5-propyl-1H-imidazol-4-yl)-5-cyclobutyl-1,3,4-thiadiazole]",7.87
6,"CCC(CC)c1nnc(-c2nc(-c3ccc(Cl)cc3Cl)n(-c3ccc(Cl)cc3)c2C)s1 [Example 99, 2-(1-(4-Chlorophenyl)-2-(2,4-dichlorophenyl)-5-methyl-1H-imidazol-4-yl)-5-(pentan-3-yl)-1,3,4-thiadiazole]",7.71
7,"CCc1c(-c2nnc(C3(c4ccc(Cl)cc4)CC3)o2)nc(-c2ccccc2Cl)n1-c1ccc(Br)cc1 [Example 58, 2-(1-(4-Bromophenyl)-2-(2-chlorophenyl)-5-ethyl-1H-imidazol-4-yl)-5-(1-(4-chlorophenyl)cyclopropyl)-1,3,4-oxadiazole]",7.99
8,"CCCC(C)c1nnc(-c2nc(-c3ccc(Cl)cc3Cl)n(-c3ccc(Cl)cc3)c2CC)o1 (stereo not shown) [Example 17, 2-(1-(4-Chlorophenyl)-2-(2,4-dichlorophenyl)-5-ethyl-1H-imidazol-4-yl)-5-(pentan-2-yl)-1,3,4-oxadiazole]",7.94
9,"CCCc1c(-c2nnc(C(C)(C)C)s2)nc(-c2ccc(Cl)cc2Cl)n1-c1ccc(Br)cc1 [Example 119, 2-(1-(4-Bromophenyl)-2-(2,4-dichlorophenyl)-5-propyl-1H-imidazol-4-yl)-5-tert-butyl-1,3,4-thiadiazole]",7.87
10,"CCc1c(-c2nnc(C(C)CC)o2)nc(-c2ccc(Cl)cc2Cl)n1-c1ccc(Cl)cc1 (stereo not shown) [Example 18, 2-sec-Butyl-5-(1-(4-chlorophenyl)-2-(2,4-dichlorophenyl)-5-ethyl-1H-imidazol-4-yl)-1,3,4-oxadiazole]",7.75
